Experimental data reported in publication PMC6629894, “Ruthenium Complexes Containing Heterocyclic Thioamidates Trigger Caspase-Mediated Apoptosis Through MAPK Signaling in Human Hepatocellular Carcinoma Cells” (Frontiers in Oncology, 2019).

Tests used:
[1] = system: HL-60 (human promyelocytic leukemia); assay: Alamar blue cytotoxicity assay, 72 h; format: cell-based
Description: (§1) The cell lines HepG2 (human hepatocellular carcinoma), HL-60 (human promyelocytic leukemia), K-562 (human chronic myelogenous leukemia), B16-F10 (mouse melanoma), MCF-7 (human breast carcinoma), HCT116 (human colon carcinoma), HSC-3 (human oral squamous cell carcinoma), SCC-4 (human oral squamous cell carcinoma), MRC-5 (human lung fibroblast), WT SV40 MEF (wild-type immortalized mouse embryonic fibroblast), and BAD KO SV40 MEF (BAD gene knockout immortalized mouse embryonic fibroblasts) were obtained from the American Type Culture Collection (ATCC, Manassas, VA, USA). Cells were cultured in RPMI 1640 medium (Gibco-BRL, Gaithersburg, MD, USA) with 10% fetal bovine serum (Life, Carlsbad, CA, USA), 2 mM L-glutamine (Vetec Química Fina, Duque de Caxias, RJ, Brazil) and 50 μg/mL gentamycin (Life). For all experiments, adherent cells were collected by treatment with 0.25% trypsin-EDTA solution (Gibco-BRL). All cell lines were cultured in flasks at 37°C in 5% CO2 and were subcultured every 3–4 days to maintain exponential growth. All cell lines were tested for mycoplasma using a mycoplasma staining kit (Sigma-Aldrich Co.) to validate that the cells that were used were free from contamination.
(§2) Cytotoxicity was measured colorimetrically using an Alamar blue method that was performed as previously described ([20], [21]). Cells were seeded in 96-well plates for all experiments (7 × 10^4 cells/mL for adherent cells or 3 × 10^5 cells/mL for suspension cells in 100 μL of medium) and incubated overnight at 37°C with 5% CO2 to allow for adherence. The complexes were dissolved in 0.5% dimethyl sulfoxide (DMSO, Vetec Química Fina) at eight different concentrations from 0.19 to 25 μg/mL and were added to each well and incubated for 72 h. The negative control was treated with the vehicle (0.5% DMSO) that was used to solubilize and dilute the complexes. […] Four (for cell lines) or 24 h (for PBMCs) before the end of incubation, 20 μL of a stock solution (0.312 mg/mL) of resazurin (Sigma-Aldrich Co.) was added to each well. Absorbance was measured at 570 and 600 nm using a SpectraMax 190 Microplate Reader (Molecular Devices, Sunnyvale, CA, USA).

[2] = system: HSC-3 (human oral squamous cell carcinoma); assay: Alamar blue cytotoxicity assay, 72 h; format: cell-based; settings: PBMCs vs HSC-3
Description: as §1, §2

[3] = system: HCT116 (human colon carcinoma); assay: Alamar blue cytotoxicity assay, 72 h; format: cell-based; settings: PBMCs vs HCT116
Description: as §1, §2

[4] = system: SCC-4 (human oral squamous cell carcinoma); assay: Alamar blue cytotoxicity assay, 72 h; format: cell-based
Description: as §1, §2

[5] = system: MCF-7 (human breast carcinoma); assay: Alamar blue cytotoxicity assay, 72 h; format: cell-based
Description: as §1, §2

B16-F10 (mouse melanoma) = assay: Alamar blue cytotoxicity assay, 72 h; format: cell-based; settings: for IC50: read-out: IC50 and 95% CI, B16-F10, 72 h
Description: as §1, §2

human topoisomerase IB = system: human topoisomerase IB; parameters: method as in PMID 26795676; settings: ref [18], [19]; cited from earlier work
advanced HCC = system: advanced HCC; parameters: method as in PMID 18650514, PMID 28604110, PMID 29533189; settings: ref [2]–[4]; cited from earlier work
[6] = system: BAD KO SV40 MEF (BAD gene knockout immortalized mouse embryonic fibroblasts); assay: Alamar blue cytotoxicity assay, 72 h; format: cell-based; settings: read-out: IC50 and 95% CI
[7] = system: WT SV40 MEF (wild-type immortalized mouse embryonic fibroblast); assay: Alamar blue cytotoxicity assay, 72 h; format: cell-based; settings: read-out: IC50 and 95% CI

## F[P-](F)(F)(F)(F)F.Nc1cc(N)nc([S-])n1.[Ru+2].c1ccc(-c2ccccn2)nc1.c1ccc(P(CCCCP(c2ccccc2)c2ccccc2)c2ccccc2)cc1 [Complex 3, [Ru(dmp)(bipy)(dppb)]PF6]
[1]; MRC-5 vs HL-60
  Selectivity index (SI = IC50 [noncancerous cells]/IC50 [cancer cells]): 1.1
[1]; PBMCs vs HL-60
  Selectivity index (SI = IC50 [noncancerous cells]/IC50 [cancer cells]): 2.6
[2]
  Selectivity index (SI = IC50 [noncancerous cells]/IC50 [cancer cells]): 2.5
[3]
  Selectivity index (SI = IC50 [noncancerous cells]/IC50 [cancer cells]): 2.2
[4]; MRC-5 vs SCC-4
  Selectivity index (SI = IC50 [noncancerous cells]/IC50 [cancer cells]): 1.1
[5]; PBMCs vs MCF-7
  Selectivity index (SI = IC50 [noncancerous cells]/IC50 [cancer cells]): 1.5
[5]; read-out: IC50 and 95% CI, MCF-7, 72 h
  IC50: 8.7 µM
B16-F10 (mouse melanoma)
  IC50: 3.9 µM
Human topoisomerase IB
  supercoiled DNA relaxation mediated by human topoisomerase IB: inhibit the supercoiled DNA relaxation

## F[P-](F)(F)(F)(F)F.O=C(O)c1ccc([S-])nc1.[Ru+2].c1ccc(-c2ccccn2)nc1.c1ccc(P(CCCCP(c2ccccc2)c2ccccc2)c2ccccc2)cc1 [Complex 4, [Ru(mpca)(bipy)(dppb)]PF6]
[1]; PBMCs vs HL-60
  Selectivity index (SI = IC50 [noncancerous cells]/IC50 [cancer cells]): 2.6
[1]; read-out: IC50 and 95% CI, HL-60, 72 h
  IC50: 8.7 µM
B16-F10 (mouse melanoma); PBMCs vs B16-F10
  Selectivity index (SI = IC50 [noncancerous cells]/IC50 [cancer cells]): 1.3
B16-F10 (mouse melanoma)
  IC50: 17.7 µM
Human topoisomerase IB
  supercoiled DNA relaxation mediated by human topoisomerase IB: inhibit the supercoiled DNA relaxation

## CNC(=O)c1cc(Oc2ccc(NC(=O)Nc3ccc(Cl)c(C(F)(F)F)c3)cc2)ccn1 [sorafenib]
Advanced HCC
  prolongation of survival: 3 months

## O=C1[O][Pt]2([NH][C@@H]3CCCC[C@H]3[NH]2)[O]C1=O [oxaliplatin, reference compound]
[4]; read-out: IC50 and 95% CI, SCC-4, 72 h
  IC50: 7.7 µM

## N.N.[Cl][Pt][Cl] [cisplatin, reference compound]
[6]
  IC50: 47.3 µM
[7]
  IC50: 36.9 µM
